Calls of active or inactive are those of the source.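 How the source made its calls: active means half-maximal concentration for the rise in caspase light signal at or below ten times the top tested dose; inconclusive means flat fit between 30% and 70% activity, or unreliable curve fit; inactive means the rest.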
These compounds were tested on MEF A1-2A-BIM cells, caspase 3/7 luminescence, 3 h (assay: caspase activation in A1-2A-BIM MEF cells, dose response, A1 inhibitor project, cell-based, luminescence, retest (AID 2765)).

Question: Which EC50 does the source give for `COC(=O)c1ccc(Cl)cc1NC(=O)/C=C/c1ccc(C)o1` here?
Answer: The EC50 was > 35 µM (inactive).

Question: For `CCOC(=O)N1CCN(C(=O)c2ccc3nc(N4CCC(C)CC4)sc3c2)CC1`, which EC50 is on record?
Answer: The EC50 was > 35 µM (inactive).

Question: How did the EC50 turn out when `CCOC(=O)[C@H]1[C@H]2COc3cc(OC)ccc3[C@@H]2N2C(=O)c3ccc(C)cc3NC(=O)[C@@]12C` was run?
Answer: Its EC50 is > 35 µM (inactive).

Question: `Cc1ccc(Cl)cc1NC(=O)CC1NC2CCCCC2NC1=O` (stereo unspecified) was tested. Which EC50 did it give?
Answer: Its EC50 is > 35 µM (inactive).

Question: Which EC50 does the source give for `CC(C)[C@H](NC(=O)[C@@H]1Cc2ccccc2CN1C(=O)OC(C)(C)C)C(=O)NC1CCCC1` here?
Answer: The EC50 was > 35 µM (inactive).

Question: How did the EC50 turn out when `COc1ccc(S(=O)(=O)N2CC(O)CC2C(=O)OCC(=O)Nc2ccc(Cl)cn2)cc1` (stereo unspecified) was run?
Answer: The EC50 was > 35 µM (inactive).

Question: `O=C1C(=O)N(C/C=C/c2ccccc2)c2ccccc21` was tested. Which EC50 did it give?
Answer: Its EC50 is > 35 µM (inactive).

Question: For `CCOc1cc(/C=C\[N+](=O)[O-])ccc1OCC(=O)Nc1ccccc1C`, which EC50 is on record?
Answer: The EC50 was 3.67 µM.

Question: Which EC50 does the source give for `COc1ccc(C2(C(=O)NCCCN(C)C)CCOCC2)cc1` here?
Answer: The EC50 was > 35 µM (inactive).

Question: Which EC50 does the source give for `CC(=O)N1CCN(C2c3cccc4cccc(c34)C2NS(=O)(=O)c2ccccc2)CC1` (stereo unspecified) here?
Answer: Its EC50 is > 35 µM (inactive).

Question: For `COC(=O)Cn1cc(C(=O)C2CC2)c2ccccc21`, which EC50 is on record?
Answer: The EC50 was > 35 µM (inactive).

Question: How did the EC50 turn out when `CCOC(=O)c1cc(/C(C)=N/OC(=O)c2ccc(C(C)(C)C)cc2)on1` was run?
Answer: The EC50 was > 35 µM (inactive).

Question: For `Cc1cc(=O)oc2c3c(cc(OCC(=O)N[C@@H](CC(C)C)C(=O)O)c12)OC(C)(C)CC3`, which EC50 is on record?
Answer: The EC50 was > 35 µM (inactive).

Question: `CC1(C)C[C@H](O)[C@]2(CO)[C@H](O)C[C@]3(C)C(=CCC4[C@@]5(C)CC[C@H](O)C(C)(C)C5CC[C@]43C)[C@@H]2C1` (stereo partly specified) was tested. Which EC50 did it give?
Answer: Its EC50 is > 35 µM (inactive).

Question: With `O=C(O)/C=C/C(=O)Nc1ccc(OC(F)F)cc1` as the compound, how does the EC50 read?
Answer: Its EC50 is > 35 µM (inactive).

Question: Which EC50 does the source give for `CC12CCCCC1NS(=O)(=O)OC2` (stereo unspecified) here?
Answer: The EC50 was > 35 µM (inactive).

Question: How did the EC50 turn out when `COc1ccc(C(=O)/C=C/C(=O)N(CC(=O)NC2CCCCC2)Cc2cccs2)c(O)c1` was run?
Answer: The EC50 was > 35 µM (inactive).

Question: Which EC50 does the source give for `O=C(Nc1ccc(-c2nc3cc(NC(=O)c4cccs4)ccc3o2)cc1)c1cccs1` here?
Answer: The EC50 was > 35 µM (inactive).

Question: `O=C(Cc1ccccc1)Oc1cccc(N2C(=O)CCC2=O)c1` was tested. Which EC50 did it give?
Answer: Its EC50 is > 35 µM (inactive).

Question: Which EC50 does the source give for `O=C1C=CC(=O)N1c1cccc(-c2ccccc2)c1` here?
Answer: The EC50 was > 35 µM (inactive).

Question: For `COc1cc(NC(=O)c2ccccc2)c(OC)cc1NC(=O)Cc1ccc(Br)cc1`, which EC50 is on record?
Answer: Its EC50 is > 35 µM (inactive).

Question: For `COc1ccc(OC)c(S(=O)(=O)NC(C)c2ccc(-n3ccnc3)cc2)c1` (stereo unspecified), which EC50 is on record?
Answer: The EC50 was > 35 µM (inactive).

Question: `CN(Cc1cnc2nc(N)nc(N)c2n1)c1ccc(C(=O)N[C@@H](CCC(=O)O)C(=O)O)cc1` was tested. Which EC50 did it give?
Answer: Its EC50 is > 35 µM (inactive).

Question: Which EC50 does the source give for `COC(=O)c1ccc(NC(=O)CCN2CCN(c3ccccc3)CC2)cc1` here?
Answer: Its EC50 is > 35 µM (inactive).

Question: For `COc1ccc(-c2nc(CN3CCN(C(=O)c4ccco4)CC3)c(C)o2)cc1OC`, which EC50 is on record?
Answer: The EC50 was > 35 µM (inactive).

Question: Which EC50 does the source give for `O=C(Cc1ccccc1)N1CCc2[nH]nc(-c3ccccc3)c2C1` here?
Answer: Its EC50 is > 35 µM (inactive).

Question: For `COc1ccc(NC(=O)CSc2nc3ccc(Nc4nc(N5CCOCC5)nc(N5CCOCC5)n4)cc3s2)cc1`, which EC50 is on record?
Answer: Its EC50 is > 35 µM (inactive).

Question: For `Nc1ccc(N2CCN(Cc3ccccc3Cl)CC2)c(Cl)c1`, which EC50 is on record?
Answer: Its EC50 is > 35 µM (inactive).

Question: How did the EC50 turn out when `Cc1cccc(-n2c(Cc3ccccc3)n[nH]c2=S)c1` was run?
Answer: The EC50 was > 35 µM (inactive).

Question: How did the EC50 turn out when `COc1ccccc1NC(=O)c1ccc(S(=O)(=O)N2CCCC2)cc1` was run?
Answer: Its EC50 is > 35 µM (inactive).

Question: For `COC(=O)C1CSC(c2ccc(Cl)cc2)N1C(=O)c1ccccc1` (stereo unspecified), which EC50 is on record?
Answer: Its EC50 is > 35 µM (inactive).

Question: Which EC50 does the source give for `COC(=O)[C@]1(C)CCC[C@@]2(C)C3CC[C@@]4(C)C[C@]3(CCC21)CC4=NO` (stereo partly specified) here?
Answer: Its EC50 is > 35 µM (inactive).

Question: Which EC50 does the source give for `COc1ccccc1C(=O)NC(=O)COC(=O)CCS(=O)(=O)c1ccc(C)cc1` here?
Answer: The EC50 was > 35 µM (inactive).

Question: For `CC(C)(C)[C@H](N)C(=O)N[C@H]1CCC2C3CC=C4C[C@@H](O)CC[C@]4(C)C3CC[C@@]21C` (stereo partly specified), which EC50 is on record?
Answer: The EC50 was > 35 µM (inactive).

Question: How did the EC50 turn out when `COc1ccc(-c2ccc(NS(=O)(=O)c3cc([N+](=O)[O-])c(C)c([N+](=O)[O-])c3)cc2)nn1` was run?
Answer: Its EC50 is > 35 µM (inactive).

Question: Which EC50 does the source give for `O=C(NCCc1ccccc1)C1CCCN1C(=O)Nc1ccc(F)cc1` (stereo unspecified) here?
Answer: Its EC50 is > 35 µM (inactive).

Question: `COc1ccc(S(=O)(=O)N2CCCCC2C)cc1` (stereo unspecified) was tested. Which EC50 did it give?
Answer: The EC50 was > 35 µM (inactive).

Question: Which EC50 does the source give for `O=C(O)c1cccc(CSc2nc(-c3ccc(Cl)cc3)cc(C(F)(F)F)n2)c1` here?
Answer: Its EC50 is > 35 µM (inactive).

Question: `COC(=O)C(Cc1ccccc1)OS(N)(=O)=O` (stereo unspecified) was tested. Which EC50 did it give?
Answer: Its EC50 is > 35 µM (inactive).

Question: Which EC50 does the source give for `C=CCOc1c2ccc(C(=O)N(CC)c3ccc(OC)cc3)cc2nn1C` here?
Answer: Its EC50 is > 35 µM (inactive).

Question: Which EC50 does the source give for `O=C(N/N=C/c1ccco1)c1cc(-c2cccc(Br)c2)nc2ccccc12` here?
Answer: The EC50 was > 35 µM (inactive).

Question: `COC(=O)CCC(=O)c1ccc(OC)c(Cl)c1` was tested. Which EC50 did it give?
Answer: The EC50 was > 35 µM (inactive).

Question: `COc1cc(OC)cc(C(=O)N[C@H](C(=O)OCC(=O)Nc2ccc(C)cc2C)C(C)C)c1` was tested. Which EC50 did it give?
Answer: Its EC50 is > 35 µM (inactive).

Question: Which EC50 does the source give for `CCOc1cc(C(=O)CSc2nnc(CNc3ccc(Cl)cc3)o2)ccc1NC(=O)CC` here?
Answer: Its EC50 is 16 µM.

Question: `CC(C)(C)c1ccc(C(=O)Nc2ccc(O)c3c(=O)cc(-c4cccc(Cl)c4)oc23)cc1` was tested. Which EC50 did it give?
Answer: The EC50 was > 35 µM (inactive).

Question: For `N#CC(C#N)=C1C=CC=CN1/C(=C\c1ccccc1Cl)C(=O)c1ccccc1`, which EC50 is on record?
Answer: Its EC50 is 7.34 µM.
